Test results from patent US4529602A, “Method for treatment or prophylaxis of gastro-intestinal disease” (priority 1981, dated 1985).
Where a name gives a salt, the structure may show the parent alone.

Assays:
[1] = test system: pepsin secretion; assay: Preventive effect on pepsin secretion in pylorus-ligated rats; format: in vivo, Male SD-strain rats; settings: 100 mg/kg oral, 5 h after administration, hydrate
Description: (§1) Preventive effect on acid and pepsin secretions
(§2) Male SD-strain rats (6 to 7 weeks old) were starved for 48 hours, and then the pylori were ligated. Immediately after ligation, a solution or suspension of a test compound in distilled water was administered orally into the stomachs in an amount of 0.2 ml per 100 g of body weight (Dose: 100 mg/kg). Five hours after said administration of the test compound, the rats were sacrificed and the stomachs were removed. The gastric contents were centrifuged at 2,500 rpm for 10 minutes and the gastric juice was collected as the supernatant. The concentration of pepsin in the gastric juice was determined by Anson's method (c.f., J. Gen. Physiol., 22, pp. 77-89 (1938)) using hemoglobin as the substrate, and the preventive effect of the test compound on the pepsin secretion was estimated in terms of "decrease in pepsin concentration" according to the following formula: [formula]

[2] = test system: gastric acid secretion; assay: Preventive effect on gastric acid secretion in pylorus-ligated rats; format: in vivo, Male SD-strain rats; settings: 100 mg/kg oral, 5 h after administration, hydrate
Description: as §1, §2
On the other hand, the concentration of free acid in the gastric juice was determined by titrating said gastric juice to pH 7.0 with 0.1N NaOH, and the preventive effect of the test compound on the gastric acid secretion was estimated in terms of "the decrease in acidity of gastric juice" according to the following formula: [formula] (Results)

[3] = test system: Shay rat ulcers; assay: Effect on Shay rat ulcers (pylorus-ligated); format: in vivo, Male SD-strain rats; settings: 17 h
Description: Male SD-strain rats (6 to 7 weeks old) were starved for 48 hours and then the pylori were ligated. Immediately after ligation, a solution or suspension of a test compound in distilled water was administered orally into the stomachs in an amount of 0.2 ml per 100 g of body weight (Dose: 200 or 300 mg/kg). Seventeen hours after the administration of the test compound, the degree of ulceration in forestomach was examined according to the method of Takagi et al (Chem. Pharm. Bull., 11(10), pp. 1282-1290 (1963)) with a modified scoring system. Depending on the diameter of each lesions, the ulcers were classified into the following 4 grades. Ulcer index was calculated by the sum of the number of ulcers in each degree multiplied by respective ulcer score. Further, based on the ulcer index determined above, the preventive effect of the test compound on Shay rat ulcer was calculated by the following formula: [formula] (Results)

[4] = test system: gastric mucus secretion; assay: Effect on gastric mucus secretion (alcian blue binding); format: in vivo, Male Sprague-Dawley rats; settings: 100 mg/kg oral, 1 h, hydrate; for Alcian blue binding: control (water) 198.5 ± 6.4
Description: Stimulating effect of a test compound on gastric mucus secretion was examined by the method of Corne et al. (J. Physiol., 242, pp. 116-117(1974); J. Pharm. Pharmacol., 33, pp. 348-352(1981)). Male Sprague-Dawley rats (6-7 weeks old; one group: 6 rats) were fasted for 20 hours before the experiments. Water was given ad libitum and coprophagy was prevented by using cages with wide-mesh floors. A test compound dissolved or suspended in distilled water was administered orally to the rats at a dose of 100 mg/kg. One hour after the administration of the test compound, the stomachs were dissected, opened along the greater curvature, rinsed in ice-cold 0.25M sucrose, and the rumen was discarded. Then, the stomachs were incubated in 10 ml of a 0.15M sucrose-0.05M sodium acetate solution (pH 5.8) containing alcian blue (1 mg/ml), at room temperature for 1.5 hours. Finally, the stomachs were placed in 15 ml of a 0.5M magnesium chloride solution for 2 hours with occasional shaking and then removed, and the magnesium chloride solution was shaken briefly with 10 ml of diethyl ether. The optical density of the aqueous layer was read at 605 nm, and the degree of alcian blue binding was expressed as μg alcian blue/g of tissue. The stimulating effect of the test compound on gastric mucus secretion was estimated in terms of "the increase in alcian blue binding" which was calculated by the following formula: [formula] (Results)

[5] = test system: gastric mucous membrane; assay: Protective effect on gastric mucous membrane (excised stomach in artificial gastric juice); parameters: species or system Male Sprague-Dawley rats; settings: 37° C., 60 min; for Amount of tyrosine: control 2.42 ± 0.15; for Amount of tyrosine / Inhibition (%) of digestion of mucous membrane: hydrate
Description: Protective effect of a test compound on gastric mucous membrane was examined by the method of Diago et al. (Yakugaku Zasshi, 101, 452-457(1981)). Male Sprague-Dawley rats (6-7 weeks old; one group: 5 rats) were fasted for 20 hours before the experiments. Water was given ad libitum and coprophagy was prevented by using cages with wide-mesh floors. The stomach was excised, opened along the greater curvature, rinsed in physiological saline solution, and the rumen was discarded. The stomach was incubated in 10 ml of an artificial gastric juice (100 mM HCl, 0.3% pepsin, 0.2% NaCl) containing a test compound, at 37° C. for 60 minutes. After the incubation, 2 ml of 7% trichloroacetic acid were added to 0.5 ml of medium, and the mixture was centrifuged. The amount of tyrosine in the supernatant was measured by using Folin-Ciocelteu reagent (J. gen. Physiol., 16, 59-63(1932)), and expressed as mg tyrosine/g tissue. The protective effect of the test compound on gastric mucous membrane was estimated in terms of "the inhibition of digestion of mucous membrane" which was calculated by the following formula: [formula] (Results)

[6] = test system: urinary electrolytes; assay: Effect on urine volume and urinary electrolytes (Experiment 7); format: in vivo, Male SD-strain rats; settings: for Urine volume: 5 h, 2 rats per cage, control 12.3; for Na/K: 5 h urine, control 5.8
Description: Male SD-strain rats (6 to 7 weeks old) were starved overnight, and a physiological saline solution (3 ml/100 g of body weight) was orally administered to the rats. One hour later, a solution or suspension of a test compound in a 0.25% CMC-physiological saline solution was administered orally to the rats in an amount of 3 ml per 100 g of body weight (Dose: 50 and 500 mg/kg). Immediately after administration of the test compound, the rats were placed into metabolic cages (2 rats per cage) and deprived of water and food for 5 hours. The urine samples which were excreted during a 5 hour period were collected. Sodium and potassium in the urine were estimated by a flame photometer (Hitachi Model-205).

[7] = test system: rats; assay: Acute oral toxicity in rats (Experiment 10); format: in vivo; settings: male SD-strain rats, 7 days, hydrate, 10080 min
Description: (§3) After male SD-strain rats (6-7 weeks old) were starved for 20 hours, a solution or suspension of a test compound in distilled water was administered orally to the rats in an amount of one ml per 100 g of body weight. After administration of the test compound, the rats were allowed free access to water and food.

[8] = in vivo; settings: mouse, oral, male ddY-strain mice, 7 days
Description: After male ddY-strain mice (4 weeks old) were starved for 4 hours, a suspension of a test compound in distilled water containing a small amount of Tween 80 was administered orally to the mice in an amount of 0.1 ml per 10 g of body weight. After administration of the test compound, the mice were allowed free access to water and food. […] As a result, the LD50 of sulfodehydroabietic acid calcium salt was more than 2,000 mg/kg.

[9] = test system: aspirin-induced ulcers; assay: Effect on aspirin-induced ulcers; format: in vivo, Male Donryu-strain rats; settings: p.o. 0.8 m mol./kg (400 mg/kg); aspirin 200 mg/kg
Description: Male Donryu-strain rats (8 to 9 weeks old) were starved overnight, and a solution or suspension of a test compound in distilled water was administered orally into the stomachs in an amount of one ml per 100 g of body weight. Half an hour later, a suspension of aspirin in 0.25% CMC solution was administered orally to the rats in an amount of 0.5 ml per 100 g of body weight (Dose: 200 mg/kg). Four hours after the administration of aspirin, the rats were sacrificed and the stomachs were removed and inflated by injecting 10 ml of 1% formalin solution to fix the inner layers of the gastric walls. The stomach was then incised along the greater curvature and the lengths of the lesions were measured and summated to give ulcer index (in mm) for each animal. The preventive effect of the test compound on aspirin-induced ulcers were calculated by the following formula: [formula] (Results)

[10] = test system: urinary electrolytes; assay: Effect on urinary electrolytes (Experiment 9); format: in vivo, Male SD-strain rats; settings: for Urine volume: 4 h, control 6.5 ± 0.3; for Na/K ratio: 4 h urine, control 5.8 ± 0.6
Description: Male SD-strain rats (6 to 7 weeks old, one group: 6 rats) were starved overnight, and a physiological saline solution (3 ml/100 g of body weight) was orally administered to the rats. One hour later, a suspension of a test compound in a physiological saline solution was administered orally to the rats in an amount of 3 ml per 100 g of body weight (Dose: 500 or 1,000 mg/kg). Immediately after administration of the test compound, the rats were placed into metabolic cages (one rat per cage) and deprived of water and food for 4 hours. The urine samples which were excreted during a 4 hour period were collected. Sodium and potassium in the urine were estimated by a flame photometer (Hitachi Model-205).

[11] = Acute oral toxicity in rats (Experiment 10); format: in vivo; settings: rat, in vivo, male SD-strain rats, 7 days
Description: as §3

[12] = 1 mg/ml in artificial gastric juice
[13] = 4 mg/ml in artificial gastric juice

SMILES: CC(C)c1cc2c(cc1S(=O)(=O)O)[C@@]1(C)CCC[C@@](C)(C(=O)O)[C@@H]1CC2 [Sulfodehydroabietic acid calcium salt, sulfodehydroabietic acid calcium salt 2.5 hydrate]
- Decrease (%) in pepsin concentration [1]: 99%
- Decrease (%) in acidity of gastric juice [2]: 30%
- Preventive effect on Shay rat ulcers ([3]; 300 mg/kg oral): 100%
- Alcian blue binding [4]: 284.7 ± 14.9 μg/g tissue
- Increase (%) in alcian blue binding [4]: 44%
- Amount of tyrosine [5, 12]: 1.72 ± 0.08 mg/g tissue
- Inhibition (%) of digestion of mucous membrane [5, 12]: 29%
- Amount of tyrosine [5, 13]: 0.86 ± 0.04 mg/g tissue
- Inhibition (%) of digestion of mucous membrane [5, 13]: 64%
- Urine volume ([6]; 50 mg/kg oral): 11.5 mL
- Na/K ([6]; 50 mg/kg oral): 5.2
- Urine volume ([6]; 500 mg/kg oral): 11.3 mL
- Na/K ([6]; 500 mg/kg oral): 6.8
- LD50 [7]: > 2000 mg/kg
- LD50 at 168 h [8]: > 2000 mg/kg

SMILES: CC(C)c1cc2c(cc1S(=O)(=O)O)[C@@]1(C)CCC[C@@](C)(C(=O)O)[C@@H]1CC2 [Sulfodehydroabietic acid monosodium salt, 1,4a-dimethyl-1-carboxy-6-sulfo-7-isopropyl-1,2,3,4,4a,9,10,10a-octahydro-phenanthrene monosodium salt 5 hydrate]
- Decrease (%) in pepsin concentration [1]: 96%
- Decrease (%) in acidity of gastric juice [2]: 43%
- Preventive effect on Shay rat ulcers ([3]; 200 mg/kg oral, hydrate): 100%
- Preventive effect on aspirin-induced ulcers [9]: 68%
- Alcian blue binding [4]: 287.3 ± 34.2 μg/g tissue
- Increase (%) in alcian blue binding [4]: 45%
- Amount of tyrosine [5, 12]: 1.61 ± 0.13 mg/g tissue
- Amount of tyrosine [5, 13]: 0.95 ± 0.07 mg/g tissue
- inhibition at 1000 µg/mL ([5]; Rattus norvegicus, 1 h, 1 mg/ml in artificial gastric juice, read-out: Inhibition (%) of digestion of mucous membrane): 33%
- inhibition at 4000 µg/mL ([5]; Rattus norvegicus, 1 h, 4 mg/ml in artificial gastric juice, read-out: Inhibition (%) of digestion of mucous membrane): 61%
- Urine volume ([10]; 500 mg/kg oral): 6.2 ± 0.5 mL
- Na/K ratio ([10]; 500 mg/kg oral): 5.6 ± 0.5
- Urine volume ([10]; 1000 mg/kg oral): 4.7 ± 0.4 mL
- Na/K ratio ([10]; 1000 mg/kg oral): 5.9 ± 0.2
- change in urinary sodium-potassium ratio ([10]; 500 or 1000 mg/kg oral, rats, in words): no substantial change in urinary sodium-potassium ratio
- LD50 at 168 h [11]: > 2000 mg/kg
